From the supplement of paper PMC10307832

Legend:
Assay in all cases: relative viability (nuclei count vs DMSO), 5 days (fraction); higher = more cells survive
Quizartinib + OSI-027 = compound: CC(C)(C)c1cc(NC(=O)Nc2ccc(-c3cn4c(n3)sc3cc(OCCN5CCOCC5)ccc34)cc2)no1 [Quizartinib] + COc1cccc2cc(-c3nc([C@H]4CC[C@H](C(=O)O)CC4)n4ncnc(N)c34)[nH]c12 [OSI-027] (partner 0.5 µM)
How it was run: (§1)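 After 5 days of treatment, lung cancer cells in 1536-well plates were fixed and stained in a single step (final 0.05% Triton X-100, 1% formaldehyde, 1 ug/ml Hoechst) and their nuclei counted on 4× images. Treatment had been applied by pin tool the day after seeding as one drug alone or as a fixed anchor-drug dose with five library-drug doses (not always all listed) in √10 steps. Relative viability is the nuclei count of treated wells divided by that of vehicle wells, and values are medians of duplicate plates.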

Quizartinib + Decitabine = compound: CC(C)(C)c1cc(NC(=O)Nc2ccc(-c3cn4c(n3)sc3cc(OCCN5CCOCC5)ccc34)cc2)no1 [Quizartinib] + Nc1ncn([C@H]2C[C@H](O)[C@@H](CO)O2)c(=O)n1 [Decitabine] (partner 2 µM)
How it was run: as §1

Quizartinib + Crizotinib = compound: CC(C)(C)c1cc(NC(=O)Nc2ccc(-c3cn4c(n3)sc3cc(OCCN5CCOCC5)ccc34)cc2)no1 [Quizartinib] + C[C@@H](Oc1cc(-c2cnn(C3CCNCC3)c2)cnc1N)c1c(Cl)ccc(F)c1Cl [Crizotinib] (partner 1 µM)
How it was run: as §1

YM155 + OSI-027 = compound: COCC[n+]1c2c(n(Cc3cnccn3)c1C)C(=O)c1ccccc1C2=O [YM155] + COc1cccc2cc(-c3nc([C@H]4CC[C@H](C(=O)O)CC4)n4ncnc(N)c34)[nH]c12 [OSI-027] (partner 0.5 µM)
How it was run: as §1

Row | Cell Line | relative viability (Quizartinib + OSI-027; first compound 0.001 µM) | relative viability (Quizartinib + OSI-027; first compound 0.003162 µM) | relative viability (Quizartinib + OSI-027; first compound 0.01 µM) | relative viability (Quizartinib + OSI-027; first compound 0.03162 µM) | relative viability (Quizartinib + OSI-027; first compound 0.1 µM) | relative viability (Quizartinib + Decitabine; first compound 0.001 µM) | relative viability (Quizartinib + Decitabine; first compound 0.003162 µM) | relative viability (Quizartinib + Decitabine; first compound 0.01 µM) | relative viability (Quizartinib + Decitabine; first compound 0.03162 µM) | relative viability (Quizartinib + Decitabine; first compound 0.1 µM) | relative viability (Quizartinib + Crizotinib; first compound 0.001 µM) | relative viability (Quizartinib + Crizotinib; first compound 0.003162 µM) | relative viability (Quizartinib + Crizotinib; first compound 0.01 µM) | relative viability (Quizartinib + Crizotinib; first compound 0.03162 µM) | relative viability (Quizartinib + Crizotinib; first compound 0.1 µM) | relative viability (YM155 + OSI-027; first compound 0.002 µM) | relative viability (YM155 + OSI-027; first compound 0.006325 µM) | relative viability (YM155 + OSI-027; first compound 0.02 µM) | relative viability (YM155 + OSI-027; first compound 0.06325 µM)
1 | NCI-H322M | 0.54 | 0.568 | 0.556 | 0.517 | 0.57 | 0.685 | 0.653 | 0.681 | 0.72 | 0.763 | 0.881 | 0.803 | 0.955 | 0.857 | 0.997 | 0.58 | 0.525 | 0.533 | 0.581
2 | NCI-H358 | 0.706 | 0.676 | 0.768 | 0.287 | 0.72 | 0.194 | 0.209 | 0.232 | – | 0.192 | 0.584 | 0.558 | 0.66 | – | 0.38 | 0.684 | 0.981 | 0.887 | 0.552
3 | NCI-H441 | 0.424 | 0.669 | 0.564 | – | 0.693 | 0.236 | 0.247 | 0.213 | 0.238 | 0.278 | 0.527 | 0.624 | 0.896 | 0.673 | 0.969 | 0.468 | 0.496 | 0.537 | 0.381
4 | NCI-H460 | 0.585 | 0.593 | 0.692 | 0.341 | 0.533 | – | 0.454 | 0.613 | – | 0.459 | 0.708 | 0.842 | 1.02 | – | 0.416 | 0.584 | 0.769 | 0.757 | 0.694
5 | NCI-H520 | 0.245 | 0.231 | 0.292 | 0.233 | 0.272 | – | 0.449 | 0.501 | 0.542 | 0.462 | 0.726 | 0.686 | 0.739 | 0.726 | 0.666 | 0.244 | 0.242 | 0.29 | 0.326
6 | NCI-H596 | 0.665 | 0.745 | 0.652 | 0.663 | 0.547 | 1.03 | 0.938 | 1.09 | 0.993 | 0.901 | 0.971 | 1 | 1.09 | 0.932 | 0.761 | 0.735 | 0.806 | 0.743 | 0.85
7 | NCI-H647 | 0.627 | 0.654 | 0.689 | 0.596 | 0.648 | 0.32 | 0.369 | 0.437 | 0.405 | 0.549 | 0.9 | 0.948 | 1.31 | 1.06 | 0.847 | 0.812 | 0.736 | 0.762 | 0.483
8 | NCI-H650 | 0.527 | 0.505 | 0.428 | 0.548 | 0.61 | 0.319 | 0.286 | 0.342 | 0.365 | 0.384 | 0.684 | 0.525 | 0.772 | 0.628 | 0.749 | 0.503 | 0.542 | 0.572 | 0.52
9 | NCI-H661 | 0.66 | 0.594 | 0.692 | 0.693 | 0.721 | 0.55 | 0.5 | 0.577 | 0.561 | 0.599 | 0.905 | 0.998 | 1.07 | – | 0.856 | 0.703 | 0.722 | 0.708 | 0.308
